Results on 17 compounds are retold here after patent publication US9758524B2, “4-imidazopyridazin-1-yl-benzamides as Btk inhibitors” (Merck Sharp & Dohme B.V., priority 2011, dated 2017).

For one assay, the target named is Src enzyme (Homo sapiens (Human), UniProt P12931). The experiment in a line: Src enzyme activity (IMAP fluorescence polarization assay). Particulars: read-out: EC50 Src activity values; IMAP, 60 min pre-incubation, 4 μM ATP.
For another assay, the target named is Btk enzyme (His-Btk) (Homo sapiens (Human), UniProt Q06187). The experiment in a line: Btk enzyme activity (IMAP fluorescence polarization assay).
Btk enzyme (His-Btk), sequence (Q06187 whole entry): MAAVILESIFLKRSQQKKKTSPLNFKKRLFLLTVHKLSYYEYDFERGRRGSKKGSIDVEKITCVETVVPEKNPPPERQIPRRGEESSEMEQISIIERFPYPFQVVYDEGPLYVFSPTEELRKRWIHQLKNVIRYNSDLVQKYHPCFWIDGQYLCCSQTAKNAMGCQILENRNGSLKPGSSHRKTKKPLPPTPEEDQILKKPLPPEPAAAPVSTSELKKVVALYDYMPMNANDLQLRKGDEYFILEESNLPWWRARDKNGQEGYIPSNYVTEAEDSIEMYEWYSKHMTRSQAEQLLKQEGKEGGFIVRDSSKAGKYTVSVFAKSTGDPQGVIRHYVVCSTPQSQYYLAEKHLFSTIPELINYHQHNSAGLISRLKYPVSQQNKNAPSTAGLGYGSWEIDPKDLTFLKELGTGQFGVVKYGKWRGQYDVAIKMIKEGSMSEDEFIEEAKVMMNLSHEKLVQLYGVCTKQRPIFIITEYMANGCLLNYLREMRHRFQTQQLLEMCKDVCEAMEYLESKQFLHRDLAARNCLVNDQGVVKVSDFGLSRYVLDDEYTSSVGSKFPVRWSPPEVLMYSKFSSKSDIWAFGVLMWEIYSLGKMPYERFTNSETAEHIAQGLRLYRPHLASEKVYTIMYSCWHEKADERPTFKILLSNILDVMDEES
Another assay concerns the target FynT enzyme (Homo sapiens (Human), UniProt P06241). Briefly: FynT enzyme activity (IMAP fluorescence polarization assay). Type of assay: biochemical. To be noted: 60 min pre-incubation, 0.2 μM ATP. The gist of the method: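 Human FynT pre-incubated with compounds 60 min at room temperature, then reacted 2 h at room temperature with fluorescein-labelled p34cdc2 peptide (100 nM final). Stopped with IMAP binding solution; fluorescence polarization read after 60 min. Activity as % of ±ATP control difference; EC50 by curve fitting.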

Another assay has as its target Lck enzyme (Homo sapiens (Human), UniProt P06239). Briefly: Lck enzyme activity (IMAP fluorescence polarization assay). On the technique in general: Polarisation of emitted light reports the rotation of a fluorescent probe.
In a further assay the target is Lyn enzyme (Homo sapiens (Human), UniProt P07948). Briefly: Lyn enzyme activity (IMAP fluorescence polarization assay). Particulars: read-out: EC50 Lyn activity values, 60 min pre-incubation, 2 μM ATP, bin bound in μM.
Lyn enzyme, sequence (P07948 whole entry): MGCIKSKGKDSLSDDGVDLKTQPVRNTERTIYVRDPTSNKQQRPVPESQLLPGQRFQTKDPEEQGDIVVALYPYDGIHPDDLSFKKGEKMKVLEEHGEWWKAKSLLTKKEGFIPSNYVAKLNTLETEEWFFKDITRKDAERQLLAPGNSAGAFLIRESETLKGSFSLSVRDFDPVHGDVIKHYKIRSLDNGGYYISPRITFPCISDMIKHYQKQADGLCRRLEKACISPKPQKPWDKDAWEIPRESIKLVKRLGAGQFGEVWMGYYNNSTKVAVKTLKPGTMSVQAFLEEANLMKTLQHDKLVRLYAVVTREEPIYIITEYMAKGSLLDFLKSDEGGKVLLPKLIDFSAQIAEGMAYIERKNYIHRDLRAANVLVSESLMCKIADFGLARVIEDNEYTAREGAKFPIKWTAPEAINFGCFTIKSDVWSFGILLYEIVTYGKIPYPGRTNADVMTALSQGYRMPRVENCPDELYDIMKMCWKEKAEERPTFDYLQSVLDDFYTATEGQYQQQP
Setting [1] is: IMAP, 60 min pre-incubation, 5 μM ATP, bin bound in nM.
[2] abbreviates: read-out: EC50 Lck activity values, IMAP, 60 min pre-incubation, 6 μM ATP, bin bound in μM.
The mark [3] stands for this setting: read-out: EC50 Btk activity values, IMAP, 60 min pre-incubation, 5 μM ATP, bin bound in nM.
Setting [4] is: IMAP, 60 min pre-incubation, 5 μM ATP, bin bound in μM.
The mark [5] stands for this setting: IMAP, 60 min pre-incubation, 6 μM ATP, bin bound in μM.

Where two headings read alike, the source gives them in different places.

Lck enzyme, sequence (P06239 whole entry): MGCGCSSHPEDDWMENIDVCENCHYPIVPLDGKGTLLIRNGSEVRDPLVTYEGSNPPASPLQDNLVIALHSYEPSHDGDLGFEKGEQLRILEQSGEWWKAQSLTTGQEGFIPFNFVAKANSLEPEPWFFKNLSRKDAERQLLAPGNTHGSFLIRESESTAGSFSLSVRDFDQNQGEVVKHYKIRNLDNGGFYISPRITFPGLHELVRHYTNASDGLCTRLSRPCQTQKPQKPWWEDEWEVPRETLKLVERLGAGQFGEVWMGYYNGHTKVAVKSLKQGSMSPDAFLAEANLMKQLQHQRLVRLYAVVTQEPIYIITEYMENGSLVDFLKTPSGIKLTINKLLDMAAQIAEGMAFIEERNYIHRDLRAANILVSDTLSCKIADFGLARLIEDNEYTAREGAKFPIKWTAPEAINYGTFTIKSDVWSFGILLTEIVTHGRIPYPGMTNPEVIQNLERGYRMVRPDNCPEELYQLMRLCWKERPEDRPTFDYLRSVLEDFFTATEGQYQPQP
FynT enzyme, sequence (P06241 other isoform, or with tags, fused parts or gaps): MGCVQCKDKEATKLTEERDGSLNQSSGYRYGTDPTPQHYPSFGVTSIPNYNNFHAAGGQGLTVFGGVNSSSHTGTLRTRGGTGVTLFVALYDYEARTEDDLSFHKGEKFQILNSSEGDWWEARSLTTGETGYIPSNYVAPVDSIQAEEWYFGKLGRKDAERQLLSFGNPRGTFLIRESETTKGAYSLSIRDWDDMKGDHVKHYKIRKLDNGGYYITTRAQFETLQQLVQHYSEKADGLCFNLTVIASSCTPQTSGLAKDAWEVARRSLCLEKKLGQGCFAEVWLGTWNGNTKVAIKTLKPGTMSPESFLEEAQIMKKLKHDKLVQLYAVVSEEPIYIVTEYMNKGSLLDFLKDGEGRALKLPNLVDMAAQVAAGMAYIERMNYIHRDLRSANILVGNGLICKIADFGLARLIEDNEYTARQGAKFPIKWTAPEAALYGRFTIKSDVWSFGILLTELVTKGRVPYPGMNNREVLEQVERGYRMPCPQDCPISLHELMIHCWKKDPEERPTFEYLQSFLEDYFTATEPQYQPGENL
Src enzyme, sequence (P12931 whole entry, looked up): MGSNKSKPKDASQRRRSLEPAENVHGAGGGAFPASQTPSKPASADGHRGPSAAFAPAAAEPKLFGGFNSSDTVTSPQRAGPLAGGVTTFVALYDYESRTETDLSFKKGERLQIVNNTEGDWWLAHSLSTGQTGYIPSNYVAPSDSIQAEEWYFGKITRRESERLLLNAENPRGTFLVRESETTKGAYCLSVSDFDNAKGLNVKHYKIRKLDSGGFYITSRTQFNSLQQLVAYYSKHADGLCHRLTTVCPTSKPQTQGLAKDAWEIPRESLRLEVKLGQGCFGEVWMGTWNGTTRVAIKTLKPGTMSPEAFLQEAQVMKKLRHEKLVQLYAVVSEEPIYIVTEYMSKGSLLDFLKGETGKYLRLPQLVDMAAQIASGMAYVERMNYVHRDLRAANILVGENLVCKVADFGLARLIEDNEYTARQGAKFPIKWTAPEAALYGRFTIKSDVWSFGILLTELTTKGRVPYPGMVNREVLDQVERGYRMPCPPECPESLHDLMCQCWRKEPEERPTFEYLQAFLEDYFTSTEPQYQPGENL

Usually EC50 stands for the midpoint of the concentration-response curve. For `CC#CC(=O)N(C)[C@@H](C)c1nc(-c2ccc(C(=O)Nc3cc(CCC)ccn3)cc2)c2c(N)nccn12` [Example 113, (S)-4-(8-amino-3-(1-(N-methylbut-2-ynamido)ethyl)imidazo[1,5-a]pyrazin-1-yl)-N-(4-propylpyridin-2-yl)benzamide], the EC50 at Src enzyme was no less than 1000 nM; on Btk enzyme (His-Btk) it was 10 to 100 nM; at FynT enzyme it was no less than 1000 nM; at Lck enzyme (setting [2]), no less than 1 µM; at Lyn enzyme, no less than 1 µM. For the same compound, at Btk enzyme (His-Btk) (setting [1]), the “EC50 Btk activity values” was less than 100 nM.

In the case of `CCC#CC(=O)N1CCC[C@H]1c1nc(-c2ccc(C(=O)Nc3ccccn3)cc2)c2c(N)nccn12` [Example 34, (S)-4-(8-Amino-3-(1-pent-2-ynoylpyrrolidin-2-yl)imidazo[1,5-a]pyrazin-1-yl)-N-(pyridin-2-yl)benzamide], the EC50 at Src enzyme was no less than 1000 nM; on Btk enzyme (His-Btk) (setting [3]) it was less than 10 nM; on FynT enzyme, no less than 1000 nM; on Lck enzyme (setting [2]), no less than 1 µM; at Lyn enzyme, no less than 1 µM.

As to `CN(C)C/C=C/C(=O)N1CCCC[C@H]1c1nc(-c2ccc(C(=O)Nc3ccccn3)cc2)c2c(N)nccn12` [Example 78, (S,E)-4-(8-amino-3-(1-(4-(dimethylamino)but-2-enoyl)piperidin-2-yl)imidazo[1,5-a]pyrazin-1-yl)-N-(pyridin-2-yl)benzamide], the EC50 on Src enzyme was no less than 1000 nM; at Btk enzyme (His-Btk) (setting [3]) it was less than 10 nM; on FynT enzyme, no less than 1000 nM; at Lck enzyme (setting [2]) it was no less than 1 µM; on Lyn enzyme it was no less than 1 µM.

As to `C=CC(=O)N[C@@H](C)c1nc(-c2ccc(C(=O)Nc3ccccn3)cc2)c2c(N)nccn12` [Example 100, (S)-4-(3-(1-acrylamidoethyl)-8-aminoimidazo[1,5-a]pyrazin-1-yl)-N-(pyridin-2-yl)benzamide], the EC50 at Src enzyme is no less than 1000 nM; on Btk enzyme (His-Btk) (setting [3]), less than 10 nM; on FynT enzyme, no less than 1000 nM; on Lck enzyme (setting [2]) it was no less than 1 µM; on Lyn enzyme, no less than 1 µM.

Consider `COC/C=C/C(=O)N1CCCC[C@H]1c1nc(-c2ccc(C(=O)Nc3cccnn3)cc2)c2c(N)nccn12` [Example 72, (S,E)-4-(8-amino-3-(1-(4-methoxybut-2-enoyl)piperidin-2-yl)imidazo[1,5-a]pyrazin-1-yl)-N-(pyridazin-3-yl)benzamide], for which the EC50 was no less than 1000 nM on Src enzyme; 100 to 1000 nM on Btk enzyme (His-Btk); no less than 1000 nM at FynT enzyme; no less than 1 µM at Lck enzyme (setting [2]); no less than 1 µM on Lyn enzyme. Also, on Btk enzyme (His-Btk) (setting [4]), the “EC50 Btk activity values” is less than 1000 nM.

For the compound `C=CC(=O)N1CCCC[C@H]1c1nc(-c2ccc(C(=O)Nc3ccccn3)cc2C)c2c(N)nccn12` [Example 68, 4-(3-((S)-1-acryloylpiperidin-2-yl)-8-aminoimidazo[1,5-a]pyrazin-1-yl)-3-methyl-N-(pyridin-2-yl)benzamide], the EC50 on Src enzyme was no less than 1000 nM; at Btk enzyme (His-Btk), 100 to 1000 nM; on FynT enzyme, no less than 1000 nM; on Lck enzyme (setting [2]), no less than 1 µM; on Lyn enzyme, no less than 1 µM. For the same compound, the “EC50 Btk activity values” at Btk enzyme (His-Btk) (setting [4]) was less than 1000 nM.

Regarding `Cc1ccnc(NC(=O)c2ccc(-c3nc([C@@H]4CCCN4C(=O)/C=C/CN(C)C)n4ccnc(N)c34)cc2)c1` [Example 59, (S,E)-4-(8-amino-3-(1-(4-(dimethylamino)but-2-enoyl)pyrrolidin-2-yl)imidazo[1,5-a]pyrazin-1-yl)-N-(4-methylpyridin-2-yl)benzamide], the EC50 on Src enzyme is no less than 1000 nM; at Btk enzyme (His-Btk) it was 10 to 100 nM; at FynT enzyme it was no less than 1000 nM; at Lck enzyme (setting [2]) it was no less than 1 µM; at Lyn enzyme, no less than 1 µM. In addition, the “EC50 Btk activity values” on Btk enzyme (His-Btk) (setting [1]) is given as less than 100 nM.

`Nc1nccn2c([C@@H]3CCCN3C(=O)c3ccnc(Cl)n3)nc(-c3ccc(C(=O)Nc4cc(C(F)(F)F)ccn4)cc3)c12` [Example 119, (S)-4-(8-amino-3-(1-(2-chloropyrimidine-4-carbonyl)pyrrolidin-2-yl)imidazo[1,5-a]pyrazin-1-yl)-N-(4-(trifluoromethyl)pyridin-2-yl)benzamide]: the EC50 was no less than 1000 nM on Src enzyme; 10 to 100 nM at Btk enzyme (His-Btk); no less than 1000 nM at FynT enzyme; no less than 1 µM at Lck enzyme (setting [2]); no less than 1 µM at Lyn enzyme. Moreover, at Btk enzyme (His-Btk) (setting [1]), the “EC50 Btk activity values” was less than 100 nM.

As to `CC#CC(=O)N1CCCC[C@H]1c1nc(-c2ccc(C(=O)Nc3ccncn3)cc2)c2c(N)nccn12` [Example 22, (S)-4-(8-Amino-3-(1-but-2-ynoylpiperidin-2-yl)imidazo[1,5-a]pyrazin-1-yl)-N-(pyrimidin-4-yl)benzamide], the EC50 on Src enzyme was no less than 1000 nM; on Btk enzyme (His-Btk) (setting [3]), less than 10 nM; on FynT enzyme, no less than 1000 nM; at Lck enzyme (setting [2]), no less than 1 µM; at Lyn enzyme, no less than 1 µM.

For the compound `C=CC(=O)N1CCCC[C@H]1c1nc(-c2ccc(C(=O)Nc3ncc(CC)s3)cc2)c2c(N)nccn12` [Example 117, (S)-4-(3-(1-acryloylpiperidin-2-yl)-8-aminoimidazo[1,5-a]pyrazin-1-yl)-N-(5-ethylthiazol-2-yl)benzamide], the EC50 is no less than 1000 nM at Src enzyme; less than 10 nM on Btk enzyme (His-Btk) (setting [3]); no less than 1000 nM at FynT enzyme; no less than 1 µM on Lck enzyme (setting [2]); no less than 1 µM on Lyn enzyme.

Regarding `C[C@H](NC(=O)c1ccnc(Cl)n1)c1nc(-c2ccc(C(=O)Nc3ccccn3)cc2)c2c(N)nccn12` [Example 105, (S)-N-(1-(8-amino-1-(4-(pyridin-2-ylcarbamoyl)phenyl)imidazo[1,5-a]pyrazin-3-yl)ethyl)-2-chloropyrimidine-4-carboxamide], the EC50 on Src enzyme was no less than 1000 nM; on Btk enzyme (His-Btk), 10 to 100 nM; at FynT enzyme, no less than 1000 nM; on Lck enzyme (setting [2]), no less than 1 µM; at Lyn enzyme, no less than 1 µM. Moreover, the “EC50 Btk activity values” at Btk enzyme (His-Btk) (setting [1]) is less than 100 nM.

On to `COC/C=C/C(=O)N1CCCC[C@H]1c1nc(-c2ccc(C(=O)Nc3ccccn3)cc2C)c2c(N)nccn12` [Example 85, 4-(8-amino-3-((S)-1-((E)-4-methoxybut-2-enoyl)piperidin-2-yl)imidazo[1,5-a]pyrazin-1-yl)-3-methyl-N-(pyridin-2-yl)benzamide], for which the EC50 at Src enzyme is no less than 1000 nM; at Btk enzyme (His-Btk), 100 to 1000 nM; at FynT enzyme, no less than 1000 nM; at Lck enzyme (setting [2]) it was no less than 1 µM; at Lyn enzyme, no less than 1 µM. For the same compound, the “EC50 Btk activity values” at Btk enzyme (His-Btk) (setting [4]) was less than 1000 nM.

Turning to `CC#CC(=O)N1CCCC[C@H]1c1nc(-c2ccc(C(=O)Nc3cc(CCC)ccn3)cc2)c2c(N)nccn12` [Example 64, (S)-4-(8-amino-3-(1-but-2-ynoylpiperidin-2-yl)imidazo[1,5-a]pyrazin-1-yl)-N-(4-propylpyridin-2-yl)benzamide], the EC50 on Src enzyme was no less than 1000 nM; on Btk enzyme (His-Btk) (setting [3]) it was less than 10 nM; on FynT enzyme it was no less than 1000 nM; at Lck enzyme, 0.1 to 1 µM; at Lyn enzyme it was no less than 1 µM. Also, at Lck enzyme (setting [5]), the “EC50 Lck activity values” was less than 1 µM.

As to `COC/C=C/C(=O)N1CCC[C@H]1c1nc(-c2ccc(C(=O)Nc3cc(OC)ccn3)cc2)c2c(N)nccn12` [Example 51, (S,E)-4-(8-amino-3-(1-(4-methoxybut-2-enoyl)pyrrolidin-2-yl)imidazo[1,5-a]pyrazin-1-yl)-N-(4-methoxypyridin-2-yl)benzamide], the EC50 on Src enzyme is no less than 1000 nM; on Btk enzyme (His-Btk), 10 to 100 nM; on FynT enzyme, no less than 1000 nM; on Lck enzyme (setting [2]), no less than 1 µM; at Lyn enzyme, no less than 1 µM. In addition, the “EC50 Btk activity values” on Btk enzyme (His-Btk) (setting [1]) is on record as less than 100 nM.

On to `Nc1nccn2c([C@@H]3CCCCN3C(=O)c3ccnc(Cl)n3)nc(-c3ccc(C(=O)Nc4cc(C(F)(F)F)ccn4)cc3)c12` [Example 115, (S)-4-(8-amino-3-(1-(2-chloropyrimidine-4-carbonyl)piperidin-2-yl)imidazo[1,5-a]pyrazin-1-yl)-N-(4-(trifluoromethyl)pyridin-2-yl)benzamide], for which the EC50 at Src enzyme is no less than 1000 nM; at Btk enzyme (His-Btk) (setting [3]), less than 10 nM; on FynT enzyme, no less than 1000 nM; at Lck enzyme (setting [2]) it was no less than 1 µM; on Lyn enzyme, no less than 1 µM.

As to `C=CC(=O)N1CCC[C@H]1c1nc(-c2ccc(C(=O)Nc3cc(C(F)(F)F)ccn3)cc2)c2c(N)nccn12` [Example 62, (S)-4-(3-(1-acryloylpyrrolidin-2-yl)-8-aminoimidazo[1,5-a]pyrazin-1-yl)-N-(4-(trifluoromethyl)pyridin-2-yl)benzamide], the EC50 on Src enzyme was no less than 1000 nM; on Btk enzyme (His-Btk) (setting [3]), less than 10 nM; on FynT enzyme it was no less than 1000 nM; at Lck enzyme, 0.1 to 1 µM; on Lyn enzyme, no less than 1 µM. The “EC50 Lck activity values” on Lck enzyme (setting [5]) was less than 1 µM.

Regarding `CCCC#CC(=O)N1CCC[C@H]1c1nc(-c2ccc(C(=O)Nc3ccccn3)cc2)c2c(N)nccn12` [Example 36, (S)-4-(8-Amino-3-(1-hex-2-ynoylpyrrolidin-2-yl)imidazo[1,5-a]pyrazin-1-yl)-N-(pyridin-2-yl)benzamide], the EC50 on Src enzyme is no less than 1000 nM; on Btk enzyme (His-Btk) (setting [3]), less than 10 nM; on FynT enzyme it was no less than 1000 nM; at Lck enzyme (setting [2]), no less than 1 µM; on Lyn enzyme, no less than 1 µM.
